Measurements taken from ChEMBL document CHEMBL3885881, “DrugMatrix”.

Species on record: Rattus norvegicus
Test: DrugMatrix - Regimen: Daily Repeat
Assay type: toxicity, organism-based, Sprague-Dawley
Set-up: regimen Daily Repeat, gender Male, age 6-8 weeks
Settings: in vivo, po, route oral GAVAGE, vehicle 100 % WATER; for ABSOLUTE BASOPHIL / ABSOLUTE EOSINOPHIL / ABSOLUTE LYMPHOCYTE / ABSOLUTE MONOCYTE / ABSOLUTE SEGMENTED NEUTROPHIL / BASOPHIL / EOSINOPHIL / ERYTHROCYTE COUNT / HEMATOCRIT / HEMOGLOBIN / LEUKOCYTE COUNT / LYMPHOCYTE / MEAN CORPUSCULAR HEMOGLOBIN / MEAN CORPUSCULAR HEMOGLOBIN CONCENTRATION / MEAN CORPUSCULAR VOLUME / MONOCYTE / NEUTROPHIL / NUCLEATED RED BLOOD CELLS / PLATELET COUNT: tissue Blood; for ALANINE AMINOTRANSFERASE / ALBUMIN / ALKALINE PHOSPHATASE / ASPARTATE AMINOTRANSFERASE / BLOOD UREA NITROGEN / CARBON DIOXIDE / CHLORIDE / CHOLESTEROL / CREATINE PHOSPHOKINASE / CREATININE / GLUCOSE / LACTATE DEHYDROGENASE / LIPASE / PHOSPHORUS / POTASSIUM / SODIUM / TOTAL BILIRUBIN / TOTAL PROTEIN / URIC ACID: tissue Plasma
[1] = 0 mg/kg, 72 h, dose level Control, time 3 day
[2] = 0 mg/kg, 120 h, dose level Control, time 5 day
[3] = 58 mg/kg, 72 h, dose level Low, time 3 day

Cc1cn([C@H]2C=C[C@@H](CO)O2)c(=O)[nH]c1=O [STAVUDINE]
ABSOLUTE BASOPHIL [1]: 0 CELLS/uL
ABSOLUTE EOSINOPHIL [1]: 0 CELLS/uL
ABSOLUTE LYMPHOCYTE [1]: 8482.5 CELLS/uL
ABSOLUTE MONOCYTE [1]: 63.83 CELLS/uL
ABSOLUTE SEGMENTED NEUTROPHIL [1]: 887 CELLS/uL
BASOPHIL [1]: 0%
EOSINOPHIL [1]: 0%
ERYTHROCYTE COUNT [1]: 5.49 x10E6/uL
HEMATOCRIT [1]: 34.5%
HEMOGLOBIN [1]: 13.33 G/DL
LEUKOCYTE COUNT [1]: 9.43 x10E3/uL
LYMPHOCYTE [1]: 90.17%
MEAN CORPUSCULAR HEMOGLOBIN [1]: 24.3 pg
MEAN CORPUSCULAR HEMOGLOBIN CONCENTRATION [1]: 38.63 G/DL
MEAN CORPUSCULAR VOLUME [1]: 62.88 fL
MONOCYTE [1]: 0.67%
NEUTROPHIL [1]: 9.17%
NUCLEATED RED BLOOD CELLS [1]: 0.67 /100WBC
PLATELET COUNT [1]: 1022.83 x10E3/uL
ALANINE AMINOTRANSFERASE [1]: 50.5 u/L
ALBUMIN [1]: 4.08 G/DL
ALKALINE PHOSPHATASE [1]: 368.33 u/L
ASPARTATE AMINOTRANSFERASE [1]: 87.5 u/L
BLOOD UREA NITROGEN [1]: 12.83 mg/dL
CARBON DIOXIDE [1]: 32.83 mmol/L
CHLORIDE [1]: 99.67 MEQ/L
CHOLESTEROL [1]: 79.67 mg/dL
CREATINE PHOSPHOKINASE [1]: 585 u/L
CREATININE [1]: 0.22 mg/dL
GLUCOSE [1]: 135.67 mg/dL
LACTATE DEHYDROGENASE [1]: 171 u/L
LIPASE [1]: 9.5 u/L
PHOSPHORUS [1]: 11.18 mg/dL
POTASSIUM [1]: 6.25 MEQ/L
SODIUM [1]: 144.87 MEQ/L
TOTAL BILIRUBIN [1]: 0.2 mg/dL
TOTAL PROTEIN [1]: 6.08 G/DL
URIC ACID [1]: 0.65 mg/dL
ABSOLUTE BASOPHIL [2]: 0 CELLS/uL
ABSOLUTE EOSINOPHIL [2]: 14.5 CELLS/uL
ABSOLUTE LYMPHOCYTE [2]: 7596.17 CELLS/uL
ABSOLUTE MONOCYTE [2]: 69.67 CELLS/uL
ABSOLUTE SEGMENTED NEUTROPHIL [2]: 503 CELLS/uL
BASOPHIL [2]: 0%
EOSINOPHIL [2]: 0.17%
ERYTHROCYTE COUNT [2]: 5.49 x10E6/uL
HEMATOCRIT [2]: 34.72%
HEMOGLOBIN [2]: 13.47 G/DL
LEUKOCYTE COUNT [2]: 8.18 x10E3/uL
LYMPHOCYTE [2]: 92.17%
MEAN CORPUSCULAR HEMOGLOBIN [2]: 24.57 pg
MEAN CORPUSCULAR HEMOGLOBIN CONCENTRATION [2]: 38.82 G/DL
MEAN CORPUSCULAR VOLUME [2]: 63.3 fL
MONOCYTE [2]: 1%
NEUTROPHIL [2]: 6.67%
NUCLEATED RED BLOOD CELLS [2]: 0 /100WBC
PLATELET COUNT [2]: 1141 x10E3/uL
ALANINE AMINOTRANSFERASE [2]: 48.33 u/L
ALBUMIN [2]: 4.07 G/DL
ALKALINE PHOSPHATASE [2]: 395.67 u/L
ASPARTATE AMINOTRANSFERASE [2]: 85.67 u/L
BLOOD UREA NITROGEN [2]: 15.83 mg/dL
CARBON DIOXIDE [2]: 31.33 mmol/L
CHLORIDE [2]: 100.83 MEQ/L
CHOLESTEROL [2]: 62.33 mg/dL
CREATINE PHOSPHOKINASE [2]: 248.33 u/L
CREATININE [2]: 0.2 mg/dL
GLUCOSE [2]: 135.67 mg/dL
LACTATE DEHYDROGENASE [2]: 141.33 u/L
LIPASE [2]: 9.5 u/L
PHOSPHORUS [2]: 10.73 mg/dL
POTASSIUM [2]: 6.07 MEQ/L
SODIUM [2]: 145.35 MEQ/L
TOTAL BILIRUBIN [2]: 0.22 mg/dL
TOTAL PROTEIN [2]: 6.12 G/DL
URIC ACID [2]: 0.63 mg/dL
ABSOLUTE BASOPHIL [3]: 0 CELLS/uL
ABSOLUTE EOSINOPHIL [3]: 22.67 CELLS/uL
ABSOLUTE LYMPHOCYTE [3]: 7881 CELLS/uL
ABSOLUTE MONOCYTE [3]: 172.33 CELLS/uL
ABSOLUTE SEGMENTED NEUTROPHIL [3]: 1024 CELLS/uL
BASOPHIL [3]: 0%
EOSINOPHIL [3]: 0.33%
ERYTHROCYTE COUNT [3]: 5.09 x10E6/uL
HEMATOCRIT [3]: 32.43%
HEMOGLOBIN [3]: 12.77 G/DL
LEUKOCYTE COUNT [3]: 9.1 x10E3/uL
LYMPHOCYTE [3]: 86.67%
MEAN CORPUSCULAR HEMOGLOBIN [3]: 25.1 pg
MEAN CORPUSCULAR HEMOGLOBIN CONCENTRATION [3]: 39.37 G/DL
MEAN CORPUSCULAR VOLUME [3]: 63.77 fL
MONOCYTE [3]: 2%
NEUTROPHIL [3]: 11%
NUCLEATED RED BLOOD CELLS [3]: 1 /100WBC
PLATELET COUNT [3]: 1073 x10E3/uL
ALANINE AMINOTRANSFERASE [3]: 58.67 u/L
ALBUMIN [3]: 4.17 G/DL
ALKALINE PHOSPHATASE [3]: 410.33 u/L
ASPARTATE AMINOTRANSFERASE [3]: 82.67 u/L
BLOOD UREA NITROGEN [3]: 12 mg/dL
CARBON DIOXIDE [3]: 33 mmol/L
CHLORIDE [3]: 99 MEQ/L
CHOLESTEROL [3]: 75 mg/dL
CREATINE PHOSPHOKINASE [3]: 267 u/L
CREATININE [3]: 0.33 mg/dL
GLUCOSE [3]: 133.33 mg/dL
LACTATE DEHYDROGENASE [3]: 130.33 u/L
LIPASE [3]: 10 u/L
PHOSPHORUS [3]: 11.33 mg/dL
POTASSIUM [3]: 6.27 MEQ/L
SODIUM [3]: 145.07 MEQ/L
TOTAL BILIRUBIN [3]: 0.23 mg/dL
TOTAL PROTEIN [3]: 6 G/DL
URIC ACID [3]: 0.77 mg/dL
